Calls of active or inactive are those of the source. The calls are words filed in the database; no cut-off is given here.
What was measured:
Homo sapiens = organism: Homo sapiens; assay: Selectivity ratio of pKi for human A3AR to pKi for human A1AR
[1] = target: T1, Adenosine receptor A3 (Homo sapiens) (UniProt P0DMS8); assay: Binding affinity to human A3AR at 50 nM incubated for 1 hr by SDS-PAGE analysis
T1 sequence (whole entry): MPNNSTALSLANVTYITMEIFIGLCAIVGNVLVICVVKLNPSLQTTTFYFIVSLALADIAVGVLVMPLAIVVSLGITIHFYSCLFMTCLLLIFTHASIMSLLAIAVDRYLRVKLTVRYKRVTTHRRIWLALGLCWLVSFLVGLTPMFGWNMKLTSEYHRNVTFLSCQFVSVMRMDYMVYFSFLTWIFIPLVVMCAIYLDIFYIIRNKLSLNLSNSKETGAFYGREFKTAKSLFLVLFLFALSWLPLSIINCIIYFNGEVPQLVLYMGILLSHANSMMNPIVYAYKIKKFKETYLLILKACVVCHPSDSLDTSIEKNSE

[2] = target: T1, Adenosine receptor A3 (Homo sapiens); assay: Binding affinity to human A3AR expressed in CHO cells membrane at 50 nM incubated for 1 hr by SDS-PAGE analysis; format: cell membranes
[3] = target: T1, Adenosine receptor A3 (Homo sapiens); assay: Binding affinity to human A3AR expressed in eosinophil incubated for 1 hr by flow cytometry analysis; format: cell-based
[4] = target: T1, Adenosine receptor A3 (Homo sapiens); assay: Binding affinity to human A3AR expressed in granulocytes incubated for 1 hr by flow cytometry analysis; format: cell-based

In the case of C#CCN(CCCn1c(=O)n(CCC)c(=O)c2c1nc1cc(OC)ccn12)C(=O)c1ccc(S(=O)(=O)F)cc1, the Ratio pKi (Homo sapiens) is reported as greater than 100 and the Activity [1] is reported as “Active”.
In the case of C#CCOc1ccn2c(c1)nc1c2c(=O)n(CCC)c(=O)n1CCCNC(=O)c1ccc(S(=O)(=O)F)cc1, the Ratio pKi (Homo sapiens) is reported as greater than 17, the Activity [1] is reported as “Active” and the Activity [2] is reported as “Active”. The Activity [3] was “Active” and the Activity [4] was “inactive”.
In the case of C#CCn1c(=O)c2c(nc3cc(OC)ccn32)n(CCCNC(=O)c2ccc(S(=O)(=O)F)cc2)c1=O, the Activity [1] is reported as “Active”.
